Data taken from the supplement of paper PMC13380429.

Experiments:
[1] = test system: A549-ACE2 infected with SARS-CoV-2; assay: morphology score (similarity to uninfected cells); higher = more like uninfected cells; conditions: 24 h
U2OS [2] = assay: drug sensitivity score (DSS) for viability; higher = more toxic; extreme values may be limits of the assay; conditions: 72 h
Caco-2 [3] = assay: as above; conditions: 72 h
HepG2 [4] = assay: as above; conditions: 72 h
Calu-3 [5] = assay: as above; conditions: 72 h
Vero E6 [6] = assay: as above; conditions: 72 h
U2OS [7] = assay: cell viability relative to DMSO; higher = less toxic; conditions: 72 h
Caco-2 [8] = assay: as above; conditions: 72 h
HepG2 [9] = assay: as above; conditions: 72 h
Calu-3 [10] = assay: as above; conditions: 72 h
Vero E6 [11] = assay: as above; conditions: 72 h
U2OS [12] = assay: relative viability EC50 (midpoint between 100% and the lowest measured viability); higher = less toxic; conditions: 72 h
Caco-2 [13] = assay: as above; conditions: 72 h
HepG2 [14] = assay: as above; conditions: 72 h
Calu-3 [15] = assay: as above; conditions: 72 h
Vero E6 [16] = assay: as above; conditions: 72 h

Row | SMILES | morphology score ([1]; 0.3 µM) | morphology score ([1]; 3 µM) | morphology score ([1]; 10 µM) | morphology score ([1]; 30 µM) | drug sensitivity score (U2OS [2]) | drug sensitivity score (Caco-2 [3]) | drug sensitivity score (HepG2 [4]) | drug sensitivity score (Calu-3 [5]) | drug sensitivity score (Vero E6 [6]) | cell viability (U2OS [7]; 1 nM) | cell viability (U2OS [7]; 10 nM) | cell viability (U2OS [7]; 100 nM) | cell viability (U2OS [7]; 1000 nM) | cell viability (U2OS [7]; 10000 nM) | cell viability (Caco-2 [8]; 1 nM) | cell viability (Caco-2 [8]; 10 nM) | cell viability (Caco-2 [8]; 100 nM) | cell viability (Caco-2 [8]; 1000 nM) | cell viability (Caco-2 [8]; 10000 nM) | cell viability (HepG2 [9]; 1 nM) | cell viability (HepG2 [9]; 10 nM) | cell viability (HepG2 [9]; 100 nM) | cell viability (HepG2 [9]; 1000 nM) | cell viability (HepG2 [9]; 10000 nM) | cell viability (Calu-3 [10]; 1 nM) | cell viability (Calu-3 [10]; 10 nM) | cell viability (Calu-3 [10]; 100 nM) | cell viability (Calu-3 [10]; 1000 nM) | cell viability (Calu-3 [10]; 10000 nM) | cell viability (Vero E6 [11]; 1 nM) | cell viability (Vero E6 [11]; 10 nM) | cell viability (Vero E6 [11]; 100 nM) | cell viability (Vero E6 [11]; 1000 nM) | cell viability (Vero E6 [11]; 10000 nM) | relative viability EC50 (U2OS [12]) | relative viability EC50 (Caco-2 [13]) | relative viability EC50 (HepG2 [14]) | relative viability EC50 (Calu-3 [15]) | relative viability EC50 (Vero E6 [16])
1 | O=S(=O)(c1cccc2cnccc12)N1CCCNCC1 [fasudil] | 0.21 | 0.17 | 0.3 | 0.09 | 0 | 0 | 0.7 | 0 | 0 | – | – | – | – | – | – | – | – | – | – | – | – | – | – | – | – | – | – | – | – | – | – | – | – | – | – | – | – | – | –
2 | O=C(c1cc2ccccc2o1)N1CCN(Cc2ccccc2)CC1 [befuraline] | – | – | – | – | 0 | 0 | 0 | 0 | 0 | 95.8% | 97.6% | 95.1% | 98% | 94.6% | 85% | 91% | 88.8% | 99.2% | 84.4% | 102% | 97% | 101% | 94.1% | 102% | 94.1% | 97.8% | 100% | 93.8% | 90.7% | 113% | 97.2% | 106% | 103% | 96.7% | > 10 µM | > 10 µM | > 10 µM | > 10 µM | > 10 µM
3 | CC(=O)S[C@@H]1CC2=CC(=O)CC[C@]2(C)[C@H]2CC[C@@]3(C)[C@@H](CC[C@@]34CCC(=O)O4)[C@H]12 [spironolactone] | – | – | – | – | 0 | 0 | 0 | 0 | 0 | 92.9% | 98.6% | 97.4% | 101% | 102% | 95.1% | 96.7% | 100% | 99.6% | 102% | 104% | 99.7% | 110% | 107% | 107% | 90.7% | 95.4% | 99.1% | 94.5% | 102% | 101% | 97.2% | 97.1% | 88.7% | 102% | > 10 µM | > 10 µM | > 10 µM | > 10 µM | > 10 µM
4 | O=C1NC(=S)NC(=O)C1C(=O)Nc1ccccc1 [merbarone] | – | – | – | – | 0 | 0 | 0 | 0 | 0 | 93.9% | 96.3% | 97.4% | 103% | 104% | 94.7% | 93.3% | 103% | 94% | 94.5% | 104% | 87.2% | 100% | 99.8% | 102% | 99.3% | 100% | 105% | 106% | 110% | 100% | 91.6% | 93.9% | 92.7% | 106% | > 10 µM | > 10 µM | > 10 µM | > 10 µM | > 10 µM
